Values quoted from earlier work as cited in US20110195928A1, “Administration of Copper to an Animal” (priority 2001, published 2011).

Conditions: general statement of the description

In the case of copper edtate [edtates], the Solubility in water is listed as “insoluble”.
